From US20240043943A1, “METHODS AND COMPOSITIONS FOR PROTEASE REPORTER ASSAYS AND MODULATORS” (712 NORTH, INC., priority 2021, published 2024) come the findings set out here.

Where a name gives a salt, the structure may show the parent alone. Starred links: 1 amine or outer side, 2 acyl side, 3 side chain; linkers in the order of their positions; H or OH if unused. Positions of bridges follow the written chain, without caps; N, C: chain ends. Non-standard residues stand in square brackets, D forms with d. Residues, ends and D or L forms follow the SMILES beside them. Chains are numbered I, II in the order given. Actinocin(9to1) = Cc1c2oc3c(C)ccc(C(=O)[*:1])c3nc-2c(C(=O)[*:2])c(N)c1=O; NMeV = CN[C@H](C(=O)O)C(C)C; Sar = CNCC(=O)O

The target of this assay is T1, OMA1 protease (Homo sapiens, UniProt Q96E52).
T1 sequence (Q96E52 144-524): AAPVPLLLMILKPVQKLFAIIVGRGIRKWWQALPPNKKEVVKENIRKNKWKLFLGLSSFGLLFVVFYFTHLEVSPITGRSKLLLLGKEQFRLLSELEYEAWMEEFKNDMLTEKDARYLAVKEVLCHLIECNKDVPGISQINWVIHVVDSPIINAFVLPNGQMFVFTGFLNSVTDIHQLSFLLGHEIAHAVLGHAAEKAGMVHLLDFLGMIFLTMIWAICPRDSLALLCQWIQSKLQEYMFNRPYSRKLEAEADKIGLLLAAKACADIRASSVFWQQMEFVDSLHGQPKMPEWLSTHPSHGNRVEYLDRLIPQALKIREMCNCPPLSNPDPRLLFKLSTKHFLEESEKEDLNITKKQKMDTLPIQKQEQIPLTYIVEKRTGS
Nature of the assay: Rep#15 / Luke-S1 OMA1 reporter bioluminescence assay in Hek293T cells. The class given is cell-based. More on the design: The OMA1 enzyme is dormant under physiological cell culture conditions in these cells; endogenous in cells; host or cells: Hek293T cells, transiently or stably (Luke-S1 line, ATCC PTA-127022) expressing reporter #15. As to conditions: drugs identified with the OMA1 assays (FIG. 17, FIG. 10). The text has this:
Example 1 provides a nonlimiting example of generation and use of a reporter of present invention and illustrates its function. To this end, generation and use of reporter gene #01 (SEQ ID NO: 01) and reporter gene #15 (SEQ ID NO: 15) are described and their function compared to each other. The general design of a reporter of present invention is illustrated in FIG. 1A and its working principle in FIG. 1B. A reporter in general, and reporter gene #01 and reporter gene #15 in particular, can be generated as follows. DNA sequences of a reporter may be codon-optimized in silico or by any other way for expression in a suitable host. DNA sequences of reporter genes #01 and #15 were codon-optimized for expression in humans (SEQ ID NO: 02 and SEQ ID NO: 16, respectively). The (optimized) sequences were synthesized and cloned into a pcDNA3.1 expression vector under the control of a CMV promotor (see FIG. 1 for an illustration of such vector). Of course, an expression system and a host should match for best results. The host in this example were Hek293T cells, which were maintained under standard culture conditions in DMEM with 10% Fetal Bovine Serum and 1% Pen/Strep. For an experiment, Hek293T cells were seeded in opaque white tissue-culture treated 96-well plates at 80% confluency and transfected with vectors carrying reporter gene #01 and reporter gene #15 and 24 hours later incubated for 30 minutes at 37° C. in OptiMEM or in OptiMEM with 10 μM CCCP. After 30 minutes, the OptiMEM cell-culture media was replaced with luciferase substrate (furimazine, Promega) diluted 1:100 in OptiMEM, and bioluminescence was measured with a Fluoroskan Ascent FL (Thermo Scientific) using a 517 nm single-pass filter and 200 milliseconds integration time. […] Reporter #01 comprises a large part of OPA1's amino-terminus as mitochondrial targeting sequence, which is cleaved by the mitochondrial processing peptidase upon mitochondrial import (see Example 2). Reporter #15 was initially envisioned as a control for reporter #01. Reporter #15 therefore lacks the first 66 amino acids of reporter #01 believed to be essential for mitochondrial import.
Example 5 illustrates how mitochondrial toxicity can be measured with reporter and assays of present invention. The OMA1-OPA1 pathway basically serves as a “canary-in-the-coalmine” for a mitochondrial deterioration. […] Hek293T cells expressing reporter #01 and #15 were exposed to CCCP, tipranavir and sorafenib (in OptiMEM) for 30 minutes before the medium was replaced with furimazine (1:100), and bioluminescence measured.
The following non-limiting examples illustrate in more details the in vivo assessment of OMA1 protease activity utilizing an artificial luciferase reporter of present invention stably expressed in Hek293T cells.

With `Cc1cc(Nc2ncc(Cl)c(Nc3ccccc3S(=O)(=O)C(C)C)n2)c(OC(C)C)cc1C1CCNCC1` [Ceritinib], the OMA1 modulating properties entry is recorded as “OMA1 modulating properties”.

Take `Cc1c2oc3c(C)ccc(C(=O)N[C@@H]4C(=O)N[C@H](C(C)C)C(=O)N5CCC[C@H]5C(=O)N(C)CC(=O)N(C)[C@@H](C(C)C)C(=O)O[C@@H]4C)c3nc-2c(C(=O)N[C@@H]2C(=O)N[C@H](C(C)C)C(=O)N3CCC[C@H]3C(=O)N(C)CC(=O)N(C)[C@@H](C(C)C)C(=O)O[C@@H]2C)c(N)c1=O` [Dactinomycin] (I: T[dV]P[Sar][NMeV] / II: T[dV]P[Sar][NMeV]; ester I:1-I:C, II:1-II:C; linker I:N-II:N via Actinocin(9to1)): the OMA1 modulating properties entry is reported as “OMA1 modulating properties”.

For `COc1cccc2c1C(=O)c1c(O)c3c(c(O)c1C2=O)C[C@@](O)(C(C)=O)C[C@@H]3O[C@H]1C[C@H](N)[C@H](O)[C@H](C)O1` [Daunorubicin hydrochloride], the OMA1 modulating properties result is on record as “OMA1 modulating properties”.

In the case of `COc1cccc2c1C(=O)c1c(O)c3c(c(O)c1C2=O)C[C@@](O)(C(=O)CO)C[C@@H]3O[C@H]1C[C@H](N)[C@H](O)[C@H](C)O1` [Doxorubicin hydrochloride], the OMA1 modulating properties entry is “OMA1 modulating properties”.

Take `CC(C)(O)CNc1nc(Nc2ccnc(C(F)(F)F)c2)nc(-c2cccc(C(F)(F)F)n2)n1` [Enasidenib]: the OMA1 modulating properties entry was “OMA1 modulating properties”.

Regarding `CN1CCN(c2ccc(C(=O)Nc3n[nH]c4ccc(Cc5cc(F)cc(F)c5)cc34)c(NC3CCOCC3)c2)CC1` [Entrectinib], the OMA1 modulating properties entry is listed as “OMA1 modulating properties”.

Take `CC(=O)[C@]1(O)Cc2c(O)c3c(c(O)c2[C@@H](O[C@H]2C[C@H](N)[C@H](O)[C@H](C)O2)C1)C(=O)c1ccccc1C3=O` [Idarubicin hydrochloride]: the OMA1 modulating properties result is “OMA1 modulating properties”.

In the case of `Cc1ccc(NC(=O)c2ccc(CN3CCN(C)CC3)cc2)cc1Nc1nccc(-c2cccnc2)n1` [Imatinib], the OMA1 modulating properties result is “OMA1 modulating properties”.

Regarding `Clc1ccc(C(c2ccccc2Cl)C(Cl)Cl)cc1` (stereo not shown) [Mitotane], the OMA1 modulating properties result is “OMA1 modulating properties”.

Regarding `C=CC(=O)Nc1cc(Nc2nccc(-c3cn(C)c4ccccc34)n2)c(OC)cc1N(C)CCN(C)C` [Osimertinib], the OMA1 modulating properties entry is recorded as “OMA1 modulating properties”.

Take `FC(F)(F)c1ccc(CNc2ccc(Cc3c[nH]c4ncc(Cl)cc34)cn2)cn1` [Pexidartinib]: the OMA1 modulating properties entry is on record as “OMA1 modulating properties”.

Consider `O=C(c1ccc(OCCN2CCCCC2)cc1)c1c(-c2ccc(O)cc2)sc2cc(O)ccc12` [Raloxifene], for which the OMA1 modulating properties entry is on record as “OMA1 modulating properties”.

Turning to `CNC(=O)c1cc(Oc2ccc(NC(=O)Nc3ccc(Cl)c(C(F)(F)F)c3)c(F)c2)ccn1` [Regorafenib], the OMA1 modulating properties entry is “OMA1 modulating properties”.

`CN(C)C(=O)c1cc2cnc(Nc3ccc(N4CCNCC4)cn3)nc2n1C1CCCC1` [Ribociclib]: the OMA1 modulating properties entry is recorded as “OMA1 modulating properties”.

For `O=C(/C=C\n1cnc(-c2cc(C(F)(F)F)cc(C(F)(F)F)c2)n1)NNc1cnccn1` [Selinexor], the OMA1 modulating properties result was “OMA1 modulating properties”.

As for `CC/C(=C(\c1ccccc1)c1ccc(OCCN(C)C)cc1)c1ccccc1` [Tamoxifen citrate], the OMA1 modulating properties entry is reported as “OMA1 modulating properties”.

Turning to `Cc1cc(Nc2ncnc3ccc(NC4=NC(C)(C)CO4)cc23)ccc1Oc1ccn2ncnc2c1` [Tucatinib], the OMA1 modulating properties result is “OMA1 modulating properties”.

`CCCCC(=O)OCC(=O)[C@]1(O)Cc2c(O)c3c(c(O)c2[C@@H](O[C@H]2C[C@H](NC(=O)C(F)(F)F)[C@H](O)[C@H](C)O2)C1)C(=O)c1c(OC)cccc1C3=O` [Valrubicin]: the OMA1 modulating properties entry is listed as “OMA1 modulating properties”.

As for Dabrafenib mesylate, the OMA1 modulating properties entry is given as “OMA1 modulating properties”.
